Entries after “also recorded” stand apart in the source; their conditions may differ. Where two headings read alike, the source gives them in different places. Primed or numbered codes have the meaning given here. Ends that are not written are not given here. * marks the point of attachment. Myristoyl = CCCCCCCCCCCCCC(=O)*; PEG4′ = PEG4 linker; FAM = fluorescein
Columns and labels:
[1] = target: T1, SIRT2 (Homo sapiens, UniProt Q8IXJ6); test: 1-aminoanthracene binding competition assay, SIRT2 alone
T1 sequence (Q8IXJ6 34-356): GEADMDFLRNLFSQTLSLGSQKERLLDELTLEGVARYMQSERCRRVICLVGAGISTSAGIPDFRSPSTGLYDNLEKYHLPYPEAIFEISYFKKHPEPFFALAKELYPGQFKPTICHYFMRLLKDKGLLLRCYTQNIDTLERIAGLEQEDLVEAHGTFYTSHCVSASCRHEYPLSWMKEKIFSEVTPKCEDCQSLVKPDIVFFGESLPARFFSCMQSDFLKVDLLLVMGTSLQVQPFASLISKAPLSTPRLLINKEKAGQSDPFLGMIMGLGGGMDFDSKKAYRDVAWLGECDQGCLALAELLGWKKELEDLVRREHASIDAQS
Protocol: Competition assays where 1-aminoanthracene was displaced from SIRT2 by 2, 4, 5, and 6 were performed as previously reported where we described its displacement from SIRT2 by 3. The assays were also cuvette-based and performed at 23°C in PBS with 1 mM DTT, and the final DMSO concentration was 0.6%. Briefly, the fluorescence intensity of 100 nM 1-aminoanthracene was measured in the presence of 4 μM SIRT2 and increasing amounts of ligand using excitation/emission wavelengths of 390 nm/520 nm. As previously described, displacement of 1-aminoanthracene from SIRT2 by a competitor results in a reduction of its fluorescence.
(§1) We determined and report absolute IC50 values from the curves which reflect ligand concentrations that reduce the fluorescence by 50% compared to control (no ligand) samples.

[2] = target: T2, human SIRT2 catalytic domain (6xHis-SUMO-SIRT2) (Homo sapiens, UniProt Q8IXJ6)
T2 sequence (Q8IXJ6 34-356): T1 sequence (Q8IXJ6 34-356)

[3] = target: T1, SIRT2; test: SIRT2 deacetylase activity assay (MALDI-MS, acetyl-H4K16 peptide); type: biochemical; conditions: for Deacetylase IC50: 4 μM acetyl-H4K16, 1 mM NAD+, 37°C, absolute IC50, "no effect" = 200 μM compound did not significantly affect SIRT2 activity
Protocol: (§2) The enzymatic activity of SIRT2 was measured using a MALDI-MS—based protocol reported previously. Reactions were performed at 37°C for 2.5 min in PBS containing 1 mM DTT and 1 mM of NAD^+. Acylated H4K16 peptides were used as the substrates at the following concentrations: acetyl-H4K16, 4 μM; decanoyl-H4K16, 0.2 μM; dodecanoyl-H4K16, 0.5 μM; myristoyl-H4K16, 0.5 μM. These concentrations correspond to the enzyme’s Km for each substrate under saturating NAD^+ conditions. The enzyme concentration in each reaction was chosen such that 20% or less of the substrate was processed by the enzyme when the reactions were quenched. In dose-response assays showing a reduction in SIRT2 activity by increasing amounts of ligand, the data was fit with standard sigmoidal dose-response curves as we previously described. We report absolute IC50 values from the curves which reflect ligand concentrations that reduce the activity of the enzyme by 50% compared to control (no ligand) samples. Assays measuring the effects of ligand on SIRT1 deacetylase and SIRT6 demyristoylase activities were performed similarly, as previously described.

[4] = target: T1, SIRT2; test: SIRT2 demyristoylase activity assay (MALDI-MS, myristoyl-H4K16 peptide); type: biochemical; conditions: for Demyristoylase IC50: 0.5 μM myristoyl-H4K16, 1 mM NAD+, 37°C, absolute IC50, "no effect" = 200 μM compound did not significantly affect SIRT2 activity
Protocol: as §2

[5] = target: SIRT2—decanoyl peptide complex; set-up: method as in PMID 32941003; conditions: cited from earlier work
[6] = target: T1, SIRT2; conditions: cited from earlier work
[7] = target: T1, SIRT2; conditions: read-out: IC50 for SIRT2 demyristoylase activity; cited from earlier work
[8] = target: T1, SIRT2; test: SIRT2 binding competition assay using Cy3-myristoyl-H4K16 peptide; conditions: concentrations as high as 100 μM
Protocol: Competition assays where Cy3-myristoyl-H4K16 peptide was displaced from SIRT2 by 1 were performed as previously described. Assays were performed in PBS with 1 mM DTT at 23°C in a quartz microcuvette (160 μl assay volume). Briefly, the fluorescence intensity of 50 nM Cy3-myristoyl-H4K16 peptide was measured in the presence of 2.5 μM SIRT2 and increasing amounts of 1 using excitation/emission wavelengths of 535 nm/560 nm. The final DMSO concentration in each measurement was 0.6%. As previously described, displacement of Cy3-myristoyl-H4K16 peptide from SIRT2 by a competitive ligand results in a reduction of its fluorescence.
as §1, with “The data from both competition assays show a reduction in probe fluorescence at increasing concentrations of competitor ligands. […] We” for “We”

[9] = test system: acetylated alpha-tubulin in A549 cells; test: Immunofluorescence staining of acetylated alpha-tubulin in A549 cells; type: cell-based, human; conditions: 25 μM, 6 hours
Protocol: 100,000 A549 or A549 SIRT2-KO cells were seeded on a coverslip that was placed in the well of 6-well plate, and the cells were grown overnight in full DMEM. […] The cells were then washed three times with PBS, fixed with 4% paraformaldehyde for 10 min, then washed again three times with PBS. Cells were incubated with 0.2% Triton X-100 for 15 minutes on a shaker followed by three more PBS washes. The cells were then blocked with 2% BSA in PBS for 1 hour at room temperature. […] Slides were imaged using a Keyence BZ-X710 fluorescence microscope with the following filter settings: DAPI, excitation/emission was 300–400 nm/438-484 nm; Alexa Fluor 488, excitation/emission was 448 nm/500-550 nm. All images were obtained under identical conditions, and fluorescence intensities were quantified using Fiji/ImageJ without any manipulation to the images. The fluorescence intensity from at least six cells per coverslip were randomly selected and measured targeting the cytosol (for measuring acetylated alpha-tubulin levels via Alexa Fluor 488) or the nucleus (for measuring nuclear DNA staining via DAPI). Relative fluorescence intensity was calculated as the ratio of Alexa Fluor 488/DAPI intensities. […]

[10] = test system: A549 cells; test: Cell viability MTT assay; type: cell-based, human; conditions: 72 hours treatment, concentrations shown in Fig 4F and 4G
Protocol: 5,000 A549 cells were seeded in a 96-well plate in full DMEM. The total volume in each well was 150 μl, and the DMSO concentration was 0.7%. After this treatment period, 10 μl of MTT reagent was added to each well, then the cells were cultured for 4 hour before adding 100 μl of crystal dissolving solution for another 16 hour incubation (Cayman Chemical, catalog #10009365). The absorbance in each well was measured at 570 nm and was used to determine the cell viability by comparing the absorbance of drug treated cells to control (DMSO treated) cells.

[11] = test system: acetylated alpha-tubulin in A549 SIRT2-KO cells; test: Immunofluorescence staining of acetylated alpha-tubulin in A549 SIRT2-KO cells; type: cell-based, human; conditions: 25 μM, 6 hours
[12] = target: T2, human SIRT2 catalytic domain (6xHis-SUMO-SIRT2); test: SIRT2—myristoyl-peptide HTRF binding assay (displacement of FAM-myristoyl-H4K16 peptide); conditions: at the highest ligand concentrations
[13] = target: T2, human SIRT2 catalytic domain (6xHis-SUMO-SIRT2); test: biochemical
[14] = target: T3, 6xHis-SUMO-SIRT2 (human SIRT2 catalytic domain, amino acids 34-356, with N-terminal 6xHis-SUMO tag) (human, UniProt Q8IXJ6 34-356); test: AlphaScreen or HTRF; direct binding; 6xHis-SUMO-SIRT2 and FAM-myristoyl-H4K16 peptide 0-10 nM each, 0.2 nM anti-6xHis terbium cryptate-labeled antibody as FRET donor; 384-well plates, room temperature, 10 mM Hepes-NaOH pH 7.4, 150 mM NaCl, 5 mM DTT, 0.005% Tween-20; apparent Kd; conditions: both partners purified
T3 construct: human SIRT2 catalytic domain, amino acids 34-356; Used in the HTRF assays; held near the FRET donor by a terbium cryptate-labeled anti-6xHis antibody (a tool); also called His tagged-SIRT2; sirtuin-2; not shown: His6, N-terminal, kept; SUMO, N-terminal, kept
T3 sequence (looked up): T1 sequence (Q8IXJ6 34-356)

[15] = target: T3, 6xHis-SUMO-SIRT2 (human SIRT2 catalytic …); test: AlphaScreen or HTRF; competition; 3 nM SIRT2, 0.2 nM terbium cryptate-labeled antibody, 3 nM FAM-myristoyl-H4K16 peptide, 10 ul/well; unlabeled myristoyl-H4K16 peptide as competitor; conditions: both partners purified
[16] = target: T4, SIRT2 catalytic domain (human, amino acids 34-356), 6xHis-SUMO tag removed (human, UniProt Q8IXJ6 34-356); test: ITC; PBS, 25°C; 20 uM SIRT2 in the cell, 200 uM peptide in the syringe; one site binding model; conditions: both partners purified
T4 construct: human SIRT2 catalytic domain, amino acids 34-356; also called sirtuin-2; source: tag removed, chromatographically purified; not shown: His6, N-terminal, cleaved; SUMO, N-terminal, cleaved
T4 sequence (looked up): T1 sequence (Q8IXJ6 34-356)

Molecule: CCCCCc1ccc(C)cc1O [compound 6, 5-methyl-2-pentylphenol]
- IC50 ([1]; SIRT2 only, 100 nM 1-aminoanthracene, 4 μM SIRT2): 81 µM
- Kd ([1]; read-out: SIRT2 Kd): 73 µM

Molecule: COc1ccc(NC(=O)c2ccc3c(SCC(=O)O)c4c(nc3c2)CCCC4)c(OC)c1 [C598-0017]
- IC50 [2]: 6.34 µM

Molecule: Oc1ccc(Br)cc1C(F)(F)F [compound 11, 4-bromo-2-(trifluoromethyl)phenol]
- Deacetylase IC50 [3]: no effect
- Demyristoylase IC50 [4]: no effect

Molecule: Nc1cccc2cc3ccccc3cc12 [1-aminoanthracene]
- Kd [5]: 4 µM
- Kd ([6]; read-out: Kd for SIRT2 alone): 37 µM
- IC50 [7]: 21 µM

Molecule: CCCCOc1cc(F)c(O)c(F)c1 [compound 13, 4-butoxy-2,6-difluorophenol]
- Deacetylase IC50 [3]: no effect
- Demyristoylase IC50 [4]: no effect

Molecule: Oc1c(F)cc(Br)cc1I [compound 9, 4-bromo-2-fluoro-6-iodophenol]
- Deacetylase IC50 [3]: no effect
- Demyristoylase IC50 [4]: no effect

Molecule: Oc1c(I)cc(Br)cc1I [compound 10, 4-bromo-2,6-diiodophenol]
- Deacetylase IC50 [3]: no effect
- Demyristoylase IC50 [4]: no effect

Molecule: FC(F)(F)C1(c2ccccc2)N=N1 [compound 8, 3-phenyl-3-(trifluoromethyl)-3H-diazirine]
- IC50 [3]: 114 µM
- Demyristoylase IC50 [4]: no effect

Molecule: O=C1CSc2nc3ccccc3n21 [compound 15, [1, 3]thiazolo[3,2-a]benzimidazole-3(2H)-one]
- displacement of 1-aminoanthracene from SIRT2 ([1]; concentrations as high as 100 μM): did not efficiently displace
- Deacetylase IC50 [3]: not effective; also recorded: no effect
- displacement of Cy3-myristoyl-H4K16 peptide from SIRT2 / interaction with SIRT2 [8]: too weak to measure a Kd; also recorded: did not efficiently displace
- IC50 [4]: 117 µM

Molecule: Oc1cc(C(F)(F)F)ccc1F [compound 14, 2-fluoro-5-(trifluoromethyl)phenol]
- Deacetylase IC50 [3]: no effect
- Demyristoylase IC50 [4]: no effect

Molecule: Cc1ccc(C(=O)Nc2ccc(S(=O)(=O)O)c3cc(S(=O)(=O)O)cc(S(=O)(=O)O)c23)cc1NC(=O)c1cccc(NC(=O)Nc2cccc(C(=O)Nc3cc(C(=O)Nc4ccc(S(=O)(=O)O)c5cc(S(=O)(=O)O)cc(S(=O)(=O)O)c45)ccc3C)c2)c1 [suramin]
- IC50 [7]: 95 µM

Molecule: Oc1c(F)cc(Br)cc1F [compound 12, 4-bromo-2,6-difluorophenol]
- Deacetylase IC50 [3]: no effect
- Demyristoylase IC50 [4]: no effect

Molecule: Cc1cc(C)nc(SCC(=O)Nc2ncc(Cc3cccc4ccccc34)s2)n1 [SirReal2, reference compound]
- level of acetylated alpha-tubulin (immunofluorescence) [9]: increased acetylated alpha-tubulin to similar levels as 1; also recorded: enhanced fluorescence
- viability / toxicity in A549 cells (MTT) [10]: did not cause toxicity; also recorded: no effect
- level of acetylated alpha-tubulin (immunofluorescence) [11]: no effect

Molecule: CCCCCCCCCCCCCCCC(=O)OC[C@H](O)[C@H]1OC(=O)C(O)=C1O [ascorbyl palmitate]
- Kd ([6]; read-out: published Kd for SIRT2): 3 to 5 µM
- IC50 [7]: 8 to 23 µM
- maximum reduction of HTRF FRET signal (displacement of FAM-myristoyl-H4K16 peptide) [12]: ~ 40%
- IC50 [13]: 2 µM

Molecule: Cc1ccc(C(C)C)c(O)c1 [compound 4, 2-isopropyl-5-methylphenol]
- IC50 [1]: 128 µM
- Kd [1]: 116 µM

Molecule: {FAM-PEG4′}-KGLGKGGAK(Myristoyl)RHRK
- Kd [14]: ~0.001 µM

Molecule: KGLGKGGAK(Myristoyl)RHRK
- IC50 [15]: 0.002 µM
- Kd [16]: 0.013 µM

— PMC11195995, “A homogeneous time-resolved fluorescence screen to identify SIRT2 deacetylase and defatty-acylase inhibitors” (PLOS ONE, 2024)
